{"source": "patent US20170234881A1", "about": "“METHODS OF DIAGNOSING AND TREATING CANCER” (INSERM ( INSTITUT NATIONAL DE LA SANTÉ ET DE LA RECHERCHE …, priority 2014, published 2017)", "key": {"MCF7 cells": {"test_system": "MCF7 cells", "assay": "Cell proliferation assay (BrDU incorporation), MCF7", "assay_type": "cell-based, human", "conditions": "MCF7 cells treated 24 h, concentration-dependent, level reached", "protocol": "FIG. 2. OCDO is a tumor promoter in vitro and in vivo and its inhibition contributes to the anti-tumor effects of Tam and DDA. (A, B) Histograms representing the effect of OCDO or 17β-estrogen (E2) on MCF7 (A) and TS/A (B) cell proliferation after 24 h treatment using a colorimetric immunoassay measuring BrDU incorporation in DNA (C, D) Histogram representing the effect of OCDO on MCF7 (C) and TS/A (D) cell invasion. Data are the mean of three separate experiments (±[…]) Mice were implanted s.c. with MCF7 (E) or TS/A (F) cells and animals (8 per group) were treated s.c. every day starting on the day of implantation with either the solvent vehicle or OCDO (16 μg/kg for MCF7 or 50 μg/kg for TS/A). Animals were monitored for tumour growth twice a week. The data are representative of three independent experiments. The mean tumor volume±s.e.m is shown, *P<0.05, **P<0.01, ***P<0.001 (analysis of variance (ANOVA), Dunnett's post test). […] (I, J, K). Murine […], or human MDA-MB231 (J) or MDA-MB468 (K) cells implanted s.c. into mice (8 per group) and animals were treated s.c. with either the solvent vehicle or OCDO (16 μg/kg for MDA-MB-231 and MDA-MB-468 or 50 μg/kg for E0771). […] At the end of this time, cells were incubated with BrDU for an additional 8 h and then evaluated for proliferation using the ELISA kit, Roche Diagnostic, as indicated by the manufacturer."}, "shHSD2 MCF7 cells": {"test_system": "shHSD2 MCF7 cells", "assay": "Clonogenic assay of shHSD2 MCF7 cells", "assay_type": "cell-based, human", "conditions": "OCDO 1 μM", "protocol": "(§1) FIG. 7. Knock-down of 11βHSD2 decreases cell proliferation, invasion and survival in MCF7 cells as well as tumor growth and OCDO reverses these effects. shC or shHSD2 MCF7 cells were analyzed as followed: (A) The proliferation of sh-C or shHSD2 cells treated or not with OCDO 5 μM 24 h was measured using quantification of DNA BrDU incorporation as described in FIG. 2A. (B) The proliferation of sh-C or shHSD2 cells treated or not with increasing concentration of cortisone for 24 h was measured as in (A). (C) The invasiveness of sh-C or shHSD2 cells treated or not with OCDO 5 μM for 72 h was assayed using matrigel-coated filters. (D) the formation of colony by sh-C or shHSD2 cells treated or not with OCDO 1 μM was quantified as described in FIG. 6F. […] Animals were monitored for tumor growth twice a week. […] (F) Mean (±s.e.m) of Ki67 positive cell number determined from IHC staining of shC or shHSD2 MCF7 tumor sections from (E), n=8, *P<0.05 (Student's t-test) using HistoQuant, Pannoramic Viewer (3DHistech).\nCells, MCF7-sh11bHSD2 (5×10^3), MCF7-shC (5×10^3) or TSA (3×10^3) were seeded in duplicate in […] diameter dish. […] At day 10, colonies were fixed with 3.7% PFA, stained with an aqueous crystal violet solution (0.05%) and the number of colonies was counted."}, "sh11HSD2 tumors": {"test_system": "sh11HSD2 tumors", "assay": "Growth of sh11HSD2 MCF7 tumors xenografted in mice", "assay_type": "in vivo", "protocol": "as §1\n(§2) Exponentially growing MCF7, ShMCF7, E0771, MDA-MB231, MDA-MB468 and TS/A cells were collected, washed twice in PBS and resuspended in PBS. […] Animals were examined daily, and body weights were measured twice per week. In all the experiments, the tumor volume was determined by direct measurement with a caliper and was calculated using the formula (width^2×length)/2. […]"}, "ShC tumors": {"test_system": "ShC tumors", "assay": "Ki67 staining of shC MCF7 tumors xenografted in mice", "assay_type": "in vivo", "conditions": "OCDO treatment", "protocol": "as §1, §2"}}}
{"smiles": "CC(C)CCC[C@@H](C)[C@H]1CC[C@H]2[C@@H]3CC(=O)[C@@]4(O)C[C@@H](O)CC[C@]4(C)[C@H]3CC[C@]12C", "note": "[OCDO, 6-oxo-cholestan-3β,5α-diol]", "values": [{"measurement": "growth rate (cell proliferation) relative to the control", "setting": "MCF7 cells", "value": 1.3, "unit": "fold"}, {"measurement": "effect on the inhibition of cell survival (colony formation) mediated by 11βHSD2 knock-down", "setting": "shHSD2 MCF7 cells", "value": "reversed the inhibition"}, {"measurement": "effect on growth of sh11HSD2 tumors", "setting": "sh11HSD2 tumors; immunodeficient mice, subcutaneous OCDO 15 μg/kg, 5 days/week", "value": "reversed the growth inhibition of sh11HSD2 tumors to a level similar to the growth of shC tumors"}, {"measurement": "cell proliferation by KI67 staining of tumors", "setting": "sh11HSD2 tumors; sh11HSD2 MCF7 tumors, OCDO treatment", "value": "reversed the growth inhibition of sh11HSD2 tumors"}, {"measurement": "cell proliferation by KI67 staining of tumors", "setting": "ShC tumors", "value": "increased"}]}
